Experimental findings from article PMC10075506, “Synthesis and biological evaluation of flavonoid-based IP6K2 inhibitors” (Journal of Enzyme Inhibition and Medicinal Chemistry, 2023) are described below.

One data set addresses T1, recombinant human IP6K2 (Homo sapiens, UniProt Q9UHH9).
T1 construct: made in house; host or cells: Sf9 insect cells (baculovirus, pFASTBAC1)
T1 sequence (Q9UHH9 1-426): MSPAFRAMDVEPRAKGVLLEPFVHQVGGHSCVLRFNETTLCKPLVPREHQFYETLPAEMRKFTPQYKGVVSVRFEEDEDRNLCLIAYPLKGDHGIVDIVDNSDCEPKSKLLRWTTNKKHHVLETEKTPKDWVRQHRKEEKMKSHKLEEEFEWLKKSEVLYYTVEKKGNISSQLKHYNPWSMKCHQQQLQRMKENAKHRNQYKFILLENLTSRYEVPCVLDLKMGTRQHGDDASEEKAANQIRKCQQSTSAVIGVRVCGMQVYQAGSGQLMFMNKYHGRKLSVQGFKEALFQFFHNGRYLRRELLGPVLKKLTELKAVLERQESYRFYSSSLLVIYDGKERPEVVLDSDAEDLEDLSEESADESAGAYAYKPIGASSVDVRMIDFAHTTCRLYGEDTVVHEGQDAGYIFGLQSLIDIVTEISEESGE
Put plainly: ADP-Glo kinase assay, IP6K2. The format is biochemical. Conditions: for IP6K2-inhibitory activity in screening: at concentrations of 10 and 50 µM, result in words; for IC50: IP6K2 80 nM, IP6 10 μM, ATP 10 μM, read-out: IP6K2 IC50; for inhibitory activity against IP6K2 (in words): IC50 experiment up to 100 µM. On the procedure: Inhibition activity of the synthesised compounds against IP6K2 was assessed using ADP-Glo™ Kinase Assay (Promega). Kinase reaction mixtures were first shaking-incubated with individual drugs (diluted in DMSO) for pre-incubation at RT for 15 min, and then ATP was added (final 10 µM) to initiate the reaction. 20 ng of recombinant human IP6K2 protein was used per 15 µL of IP6K2 reaction mixture (50 mM Tris-HCl, pH 6.8, 10 mM MgCl2, 2.5 mM DTT, 0.02% Triton X-100, 10 µM IP6). […] Each detection set was prepared on 96-well (25 µL kinase reaction) as duplicates. Resulting enzyme activity was calculated as following; Activity (%) = ([ADPexperimental]/[ADPDMSO])×100. For IC50 estimation of compounds, kinase assay was prepared on 384-well plates (20 ng of recombinant human IP6K2 protein was used per 5 µL kinase reaction mixture) as duplicates. The final concentrations for IP6K2, IP6, and ATP were 80 nM, 10 μM, and 10 μM, respectively. […] IP6K1 and IP6K3 assays were performed by Liao et al.’s conditions.[25] The final concentrations for IP6K1, IP6, and ATP were 60 nM, 100 μM, and 1 mM, respectively. […] All statistical analyses including IC50 estimation was performed using Prism 7 or Prism 9 (Graphpad Software).
Full-length human IP6K1, IP6K2, or IP6K3 cDNA was subcloned into pFASTBAC1 plasmid (Gibco) with an N-terminal FLAG epitope sequence, and baculovirus was generated according to the manufacturer’s instructions. Sf9 insect cells were infected with baculovirus and incubated for 72 h. The cells were resuspended in lysis buffer [20 mM Tris–HCl (pH 7.9), 500 mM NaCl, 4 mM MgCl2, 0.4 mM EDTA, 2 mM DTT, 20% glycerol, 1 mM PMSF, and protease inhibitor cocktail (Roche)] and then disrupted with a Dounce homogeniser (pestle A, 3 series of 10 strokes with 10 min interval).
(In general: ADP-Glo first removes unused ATP, then detects ADP through luciferase.)

The nature of another data set: in vitro. Conditions: PAMPA. An excerpt:
Supporting Information Table 1.
artificial membrane permeability assay (PAMPA) as described previously (reference). The apparent permeability
(ranitidine, nadolol, hydrochlorothiazide).
Data are mean ± S.D. (n=3).
Reference: Oh, M.H., Lee, H.J., Jo, S.H., et al. Development of Cassette PAMPA for Permeability Screening. Biol Pharm

Where [1] appears, read: Table 2, duplicates, 0.017 to 100 µM, mean ± SD.

Read-outs that look alike come from different tables or passages of the source. Where only a bound is given, the exact number is not on record here.

In general, melting point refers to the temperature of the solid-liquid transition. `O=c1cc(-c2ccc(O)cc2)oc2cccc(F)c12` displayed a melting point of 272 to 274 °C.
On to `O=c1cc(-c2ccc(O)cc2)oc2cc(O)c(O)cc12` [Compound 2c], for which, on recombinant human IP6K2, the “IP6K2-inhibitory activity in screening” value was “inhibit IP6K2 more strongly than the corresponding compounds”.
By IC50 is commonly meant the point on the concentration scale where inhibition reaches its midpoint. On to `O=C(O)c1ccc(-c2oc3cc(O)c(O)cc3c(=O)c2O)cc1` [Compound 20r, 4–(3,6,7-Trihydroxy-4-oxo-4H-chromen-2-yl)benzoic acid], for which the concentration for half-maximal inhibition (IC50) at recombinant human IP6K2 (setting [1]) was determined as 3.93 ± 0.03 µM.
In the case of `COc1ccc(-c2cc(=O)c3c(F)cc(F)cc3o2)cc1`, the melting point was 256 to 258 °C.
Compound `O=c1cc(-c2ccc(O)cc2)oc2ccc(F)cc12` displayed a melting point of 292 to 294 °C.
As to `O=c1c(O)c(-c2ccc(-c3ccccc3)cc2)oc2cc(O)c(O)cc12` [Compound 20m, 2-([1,1'-Biphenyl]-4-yl)-3,6,7-trihydroxy-4H-chromen-4-one], the IC50 at recombinant human IP6K2 (setting [1]) is more than 100 µM.
Turning to `O=c1c(O)c(-c2ccc(O)c(O)c2)oc2cc(O)c(O)cc12` [Compound 20a, 2–(3,4-Dihydroxyphenyl)-3,6,7-trihydroxy-4H-chromen-4-one], at recombinant human IP6K2 (setting [1]), the IC50 worked out at 1.77 ± 0.15 µM.
Still for that read-out and setting: for `O=c1c(O)c(-c2ccccc2)oc2cc(O)c(O)cc12` [Compound 20b, 3,6,7-Trihydroxy-2-phenyl-4H-chromen-4-one] the value was 14.5 ± 0.9 µM; for `O=c1c(O)c(-c2ccc(C(F)(F)F)cc2)oc2cc(O)c(O)cc12` [Compound 20i, 3,6,7-Trihydroxy-2–(4-(trifluoromethyl)phenyl)-4H-chromen-4-one], more than 100 µM.
A word on the Papp: it is a coefficient for how fast a substance crosses the barrier. With `CNC(=C[N+](=O)[O-])NCCSCc1ccc(CN(C)C)o1` [Ranitidine, ranitidine], in the data set “in vitro”, the Papp is less than 0.18 ×10⁻⁶ cm/s and the Permeability class entry was “Low”.
Compound `O=C(O)c1cccc(-c2cc(=O)c3cc(F)c(F)cc3o2)c1` came in with a melting point of 272 to 274 °C.
`O=c1cc(-c2ccccc2)oc2cc(O)c(O)cc12` [Compound 2a]: on recombinant human IP6K2, the “IP6K2-inhibitory activity in screening” value is “inhibit IP6K2 more strongly than the corresponding compounds”.
Take `Cn1cc(-c2oc3cc(O)c(O)cc3c(=O)c2O)cn1` [Compound 23b, 3,6,7-Trihydroxy-2–(1-methyl-1H-pyrazol-4-yl)-4H-chromen-4-one]: at recombinant human IP6K2 (IC50 compared with quercetin), the “fold more potent IP6K2 inhibition than quercetin” value is given as 2 fold. The concentration for half-maximal inhibition (IC50) on recombinant human IP6K2 (setting [1]) was found to be 1.79 ± 0.4 µM.
Compound `O=C(O)c1ccc(-c2cc(=O)c3c(O)cc(O)cc3o2)cc1` [Compound 16c, 4–(5,7-Dihydroxy-4-oxo-4H-chromen-2-yl)benzoic acid] registered a melting point of 337 to 339 °C. In addition, the IC50 on recombinant human IP6K2 (Table 1) amounted to 41.9 µM.
For `O=c1c(O)c(-c2ccc3ccccc3c2)oc2cc(O)c(O)cc12` [Compound 23a, 3,6,7-Trihydroxy-2-(naphthalen-2-yl)-4H-chromen-4-one], the IC50 at recombinant human IP6K2 (setting [1]) turned out to be 97.8 ± 1.7 µM.
With `O=c1c(O)c(-c2cccs2)oc2cc(O)c(O)cc12` [Compound 23c, 3,6,7-Trihydroxy-2-(thiophen-2-yl)-4H-chromen-4-one], at recombinant human IP6K2 (setting [1]), the IC50 was determined as 73.3 ± 12.8 µM.
On the same count and under the same terms, for `O=c1c(O)c(-c2ccc(Oc3ccccc3)cc2)oc2cc(O)c(O)cc12` [Compound 20n, 3,6,7-Trihydroxy-2–(4-phenoxyphenyl)-4H-chromen-4-one] the value was more than 100 µM.
On the same count and under the same terms, for `Cc1cccc(-c2oc3cc(O)c(O)cc3c(=O)c2O)c1` [Compound 20d, 3,6,7-Trihydroxy-2-(m-tolyl)-4H-chromen-4-one] the value was 38.8 ± 3.8 µM; for `O=c1c(O)c(-c2cccc(O)c2)oc2cc(O)c(O)cc12` [Compound 20q, 3,6,7-Trihydroxy-2–(3-hydroxyphenyl)-4H-chromen-4-one], 2.96 ± 0.19 µM; for `O=c1c(O)c(-c2ccc(F)cc2)oc2cc(O)c(O)cc12` [Compound 20f, 2–(4-Fluorophenyl)-3,6,7-trihydroxy-4H-chromen-4-one], 61.9 ± 3.8 µM.
As for `COc1ccc(-c2cc(=O)c3cc(F)ccc3o2)cc1`, the melting point is 160 to 162 °C.
The same measure, in the same setting: for `O=c1cc(-c2ccccc2)oc2cc(F)ccc12` the value was 96 to 98 °C.
As for `O=C(O)c1ccc(-c2cc(=O)c3cc(O)c(O)cc3o2)cc1` [Compound 16a, 4–(6,7-Dihydroxy-4-oxo-4H-chromen-2-yl)benzoic acid], at recombinant human IP6K2 (Table 1), the IC50 was determined as 9.07 µM.
The compound `COc1ccc(-c2cc(=O)c3c(F)cccc3o2)cc1` gave a melting point of 178 to 180 °C.
Compound `O=c1cc(-c2ccccc2)oc2cccc(F)c12` registered a melting point of 144 to 146 °C.
Take `O=c1c(O)c(-c2ccc(O)cc2)oc2cc(O)c(O)cc12` [Compound 20p, 3,6,7-Trihydroxy-2–(4-hydroxyphenyl)-4H-chromen-4-one]: at recombinant human IP6K2 (setting [1]), the half-inhibitory concentration (IC50) came out at 22.6 ± 0.3 µM.
With `O=c1c(O)c(-c2cccc(F)c2)oc2cc(O)c(O)cc12` [Compound 20g, 2–(3-Fluorophenyl)-3,6,7-trihydroxy-4H-chromen-4-one], the concentration for half-maximal inhibition (IC50) at recombinant human IP6K2 (setting [1]) was determined as 38.7 ± 2.9 µM.
Same read-out and setting: for `O=c1c(O)c(-c2cccc(Cl)c2)oc2cc(O)c(O)cc12` [Compound 20l, 2–(3-Chlorophenyl)-3,6,7-trihydroxy-4H-chromen-4-one] the value was 73.2 ± 3.2 µM; for `O=c1c(O)c(-c2cccc(Oc3ccccc3)c2)oc2cc(O)c(O)cc12` [Compound 20o, 3,6,7-Trihydroxy-2–(3-phenoxyphenyl)-4H-chromen-4-one], 73.3 ± 12.7 µM.
On to `COc1ccc(-c2cc(=O)c3ccc(F)cc3o2)cc1`, for which the melting point was 228 to 230 °C.
Same read-out and setting: for `COc1ccc(-c2cc(=O)c3cc(F)c(F)cc3o2)cc1` the value was 200 to 202 °C.
For `O=c1c(O)c(-c2cccc(C(F)(F)F)c2)oc2cc(O)c(O)cc12` [Compound 20j, 3,6,7-Trihydroxy-2–(3-(trifluoromethyl)phenyl)-4H-chromen-4-one], the IC50 at recombinant human IP6K2 (setting [1]) was more than 100 µM.
`O=c1cc(-c2ccc(O)cc2)oc2cc(F)c(F)cc12`: the melting point was in the range of 302 to 304 °C.
On to `O=C(O)c1cccc(-c2cc(=O)c3c(O)cc(O)cc3o2)c1` [Compound 16d, 3–(5,7-Dihydroxy-4-oxo-4H-chromen-2-yl)benzoic acid], for which the half-maximal inhibitory concentration (IC50) at recombinant human IP6K2 (Table 1) came to 2.89 µM.
As for `Cc1ccc(-c2oc3cc(O)c(O)cc3c(=O)c2O)cc1` [Compound 20c, 3,6,7-Trihydroxy-2-(p-tolyl)-4H-chromen-4-one], at recombinant human IP6K2 (setting [1]), the IC50 is more than 100 µM.
`O=c1cc(-c2ccc(O)cc2)oc2cc(F)ccc12`: the melting point fell in the range of 310 to 312 °C.
Consider `O=C(O)c1cccc(-c2cc(=O)c3cc(O)c(O)cc3o2)c1` [Compound 16b, 3–(6,7-Dihydroxy-4-oxo-4H-chromen-2-yl)benzoic acid], for which the melting point is 416 to 418 °C. Moreover, the IC50 at recombinant human IP6K2 (Table 1) was determined as 1.67 µM.
Regarding `O=c1c(O)c(-c2ccc(F)c(F)c2)oc2cc(O)c(O)cc12` [Compound 20h, 2–(3,4-Difluorophenyl)-3,6,7-trihydroxy-4H-chromen-4-one], at recombinant human IP6K2, the “inhibitory activity against IP6K2 (in words)” value is recorded as “completely lost their inhibitory activity against IP6K2”. Moreover, the IC50 at recombinant human IP6K2 (setting [1]) is more than 100 µM.
With `Cc1ccc(-c2oc3cc(O)c(O)cc3c(=O)c2O)cc1C` [Compound 20e, 2–(3,4-Dimethylphenyl)-3,6,7-trihydroxy-4H-chromen-4-one], the “inhibitory activity against IP6K2 (in words)” value on recombinant human IP6K2 is recorded as “completely lost their inhibitory activity against IP6K2”. The concentration for half-maximal inhibition (IC50) at recombinant human IP6K2 (setting [1]) was more than 100 µM.
For `O=c1cc(-c2ccc(O)cc2)oc2cc(F)cc(F)c12`, the melting point was in the range of 228 to 230 °C.
`O=c1c(O)c(-c2ccc(Cl)cc2)oc2cc(O)c(O)cc12` [Compound 20k, 2–(4-Chlorophenyl)-3,6,7-trihydroxy-4H-chromen-4-one]: at recombinant human IP6K2 (setting [1]), the IC50 came to 81.5 ± 3.3 µM.
As to `O=c1cc(-c2cccnc2)oc2cc(O)c(O)cc12` [Compound 2e], the “IP6K2-inhibitory activity in screening” value at recombinant human IP6K2 was “inhibit IP6K2 more strongly than the corresponding compounds”.
